Results taken from patent US20190351002A1, “METHOD OF TREATING CANCER, PARASITE, MICROBIAL OR FUNGAL DISEASE” (priority 2017, published 2019).

What was measured:
[1] = system: Hep2 (Human Epidermoid Larynx ca) cells; test: MTT cytotoxicity test on Hep2 cell line; type: cell-based
Text: The oils of the plant as an extract are used which have been obtained by cold pressing and it has been ensured that the extract is fresh and pure. The extracts that have been obtained through the whole study have been initially diluted with solvents, filtered and sterilized. Cytotoxicity study (MTT test) has been developed as a method regarding the Hep2 cell line in all parameters for initial doses. The maximum dose and dilution sub doses that have been determined accordingly have been repeated controlled groups. Different amounts of Hep2 cells have been tested in flat bottomed 96 well plates for cell culture during the first stage of the study and it has been determined that 2×10^4 cells were optimal for the monolayer layer of 2×10^4 cell per well. A pure oil of Zingiber officinale extract, which has been tested inside various solvents in terms of penetration into cells and homogenous distribution. MTT tests have been carried out relating to Hep2 cells in solvents too. DMSO was selected from solvents such as DMSO and Methanol and was used and cytopathic doses have not been exceeded during the whole study (FIG. 1). Essential oil has been obtained from Ginger and emulsions have been obtained from fixed oil plants (Nigella Sativa etc.) and compounds. According to MTT test (FIG. 2) results that belong to Zingiber officinale, the average OD values of the control group have been determined as 1.38.

[2] = system: Toxoplasma gondii; test: ELISA test of efficiency against Toxoplasma gondii in infected Hep2 cells; type: cell-based; settings: 48 hour
Text: An ELISA (Enzyme-Linked Immunosorbent Assay) test (FIG. 3) has been planned and conducted in order to determine efficiency against Toxoplasma gondii.
The ELISA test has been carried out on flat bottom well plates having 96 wells. First of all, the bases of the plates have been covered with a suitable amount of Hep2 cells. […] Following this all wells have been processed again with different doses (determined with MTT) of pyrimtheamine, sulphadiazine—and Ginger (Zingiber officinals) extract, prepared with DMSO.
1 Following all of these procedures, the supernatants were removed from the wells and were retained for 10 minutes with 100 μl cold methanol. • The plates which were ready for the ELISA process were then worked.
The result was read by the ELISA reader device in 30 minutes.

SMILES	OD value (MTT test) ([1]; 1 μg/ml)	OD value (MTT test) ([1]; 2 μg/ml)	OD value (MTT test) ([1]; 4 μg/ml)	OD value (MTT test) ([1]; 8 μg/ml)	OD value (MTT test) ([1]; 16 μg/ml)	OD value (MTT test) ([1]; 32 μg/ml)	ELISA OD value / reproduction according to positive control (PK) ([2]; 0.5 μg/ml) [%]	ELISA OD value / reproduction according to positive control (PK) ([2]; 4 μg/ml) [%]	ELISA OD value / reproduction according to positive control (PK) ([2]; 2nd dose (printed '2.1 and 0.5 μg/ml': 2 μg/ml)) [%]	ELISA OD value / reproduction according to positive control (PK) ([2]; 3rd dose) [%]	OD value (MTT test) ([1]; 50 μg/ml)	OD value (MTT test) ([1]; 100 μg/ml)	OD value (MTT test) ([1]; 200 μg/ml)
CCc1nc(N)nc(N)c1-c1ccc(Cl)cc1 [Pyrimethamine]	1.228	1.198	0.623	0.310	0.209	0.097	75	45	56	54			
Nc1ccc(S(=O)(=O)Nc2ncccn2)cc1 [Sulphadiazine]											1.002	0.827	0.254
